Measurements from PubChem BioAssay (NCI).
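In this assay, cells in 96-well plates receive the compound at five concentrations for 48 hours. Endpoints are linearly interpolated between the surrounding concentrations. Abbreviation: GI50, concentration required for 50% inhibition of growth. TGI is the concentration that stops growth completely.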

Columns and labels:
Assay in all cases: DTP human tumour cell line panel, 48 h
[1] = test system: LOX IMVI melanoma
[2] = test system: NCI-H522 lung
[3] = test system: SW-620 colon
[4] = test system: A498 renal
[5] = test system: HCT-116 colon
[6] = test system: TK-10 renal
[7] = test system: MDA-MB-435
[8] = test system: EKVX NSCLC
[9] = test system: PC-3 prostate
[10] = test system: HL-60(TB) leukemia
[11] = test system: HCC-2998 colon

SMILES | TGI [1] [µM] | TGI [2] [µM] | TGI [3] [µM] | TGI [4] [µM] | TGI [5] [µM] | TGI [6] [µM] | TGI [7] [µM] | TGI [8] [µM] | TGI [9] [µM] | TGI [10] [µM] | TGI [11] [µM] | GI50 [1] [µM] | GI50 [2] [µM] | GI50 [3] [µM] | GI50 [6] [µM] | GI50 [7] [µM] | GI50 [8] [µM] | GI50 [9] [µM] | GI50 [10] [µM] | GI50 [11] [µM]
C=C1CC2(C)CCC(OC(=O)C3(C)OC3C)C(C)(OC(C)=O)C2CC1=C(C)C (stereo not given) | > 100 | > 100 | > 100 | > 100 | > 100 | > 100 | > 100 | > 100 | > 100 | 76.1 | > 100 |  |  |  |  |  |  |  |  | 
COc1ccc2c(c1)C(=O)/C(=C/c1ccccc1)C2 |  | > 100 |  | > 100 |  |  | > 100 |  | > 100 |  |  |  |  |  |  |  |  |  |  | 
COc1cc(CN(C)N2C(=O)c3cccc4cc([N+](=O)[O-])cc(c34)C2=O)cc(OC)c1OC |  | > 100 |  | > 100 |  |  | > 100 |  | > 100 | > 100 |  |  |  |  |  |  |  |  |  | 
O=c1n(Cc2ccccc2)c2ccccc2n1CC1CS1 (stereo not given) | > 100 | > 100 | > 100 |  | > 100 | > 100 |  | > 100 |  | > 100 | > 100 |  |  |  |  |  |  |  |  | 
CCNc1nc2c(=O)n(C)c(=O)n(C)c2s1 | > 100 | > 100 | > 100 | > 100 | > 100 | > 100 |  | > 100 |  | > 100 | > 100 |  |  |  |  |  |  |  |  | 
CC12CCC3C(CCC4(O)C=CCCC34C=O)C1(O)CC(O)C2c1ccc(=O)oc1 (stereo not given) | 0.216 | 0.0622 | 0.222 | 0.253 | 0.22 |  |  | 0.087 |  |  | 0.252 |  |  |  |  |  |  |  |  | 
Cc1cc(C)c(S(=O)(=O)N(CCCCCCN)OCCCON(CCCCCCN)S(=O)(=O)c2c(C)cc(C)cc2C)c(C)c1 | 3.19 | 3.27 |  | 3.02 | 3.08 | 3.07 | 3.99 | 3.19 | 3.15 | > 100 |  |  |  |  |  |  |  |  |  | 
CCOC(=O)c1csc(NC(=O)CCN2CCOCC2)n1 | > 100 |  | > 100 | > 100 |  | > 100 | > 100 | > 100 | > 100 | 94.4 | > 100 |  |  |  |  |  |  |  |  | 
O=C(NC/C=C/CO)c1ccccc1 | > 100 | > 100 | > 100 | > 100 | > 100 |  |  | > 100 |  | > 100 | > 100 |  |  |  |  |  |  |  |  | 
COc1ccc(-c2nnc3c4ccccc4sn23)cc1 | > 100 |  | > 100 |  | > 100 | > 100 |  | > 100 |  | 45.4 | > 100 |  |  |  |  |  |  |  |  | 
Fc1cc(C2=Nn3c(nnc3-c3cc(F)c(Cl)cc3Cl)SC2)c(Cl)cc1Cl | 45.6 | > 100 | 47.2 |  |  | > 100 | 83.2 | 90.3 | > 100 | > 100 | > 100 | 21.6 | 24.1 | 22.6 | 37.4 | 27.8 | 24.6 | 16.9 | 80.4 | 31.6
O=C1CNC(=O)N1 | > 1120 | > 1120 | > 1120 | > 1120 | > 1120 |  |  | > 1120 |  | > 1120 | > 1120 |  |  |  |  |  |  |  |  | 
CC1(C)CCCC2(C)[C@@H]1CC[C@]13C[C@](C)(CC[C@@H]21)[C@@H]3CO (stereo not given in full) | > 100 | > 100 | > 100 |  | > 100 | > 100 |  |  |  | > 100 | > 100 |  |  |  |  |  |  |  |  | 
